3 molecules from patent US4443436A, “C-20-Modified macrolide derivatives of the macrolide antibiotics tylosin, desmycosin, macrocin, and lactenocin” (Eli Lilly and Company, priority 1982, dated 1984) can be followed below.

Molecules are shown by their SMILES. ≈ marks a conversion by molar mass, not a printed value.

Experiment [1] concerns Streptococcus pyogenes C203. Put plainly: In vivo protection of mice experimentally infected with S. pyogenes C203. Particulars: mice, doses given 1 and 4 hours post-infection. On the procedure:
The C-20 modified derivatives of this invention have shown in vivo antimicrobial activity against experimentally-induced infections in laboratory animals. When two doses of test compound were administered to mice experimentally infected with S. pyogenes C203, the activity observed was measured as an ED50 value [effective dose in mg/kg to protect 50% of the test animals: see Warren Wick, et al., J. Bacteriol. 81, 233-235 (1961)].

Experiment [2] deals with Pasteurella multocida 60A. Put plainly: MIC, broth-dilution microtiter test, Pasteurella multocida 60A. The following applies: Pasteurella multocida 60A; avian isolate; broth-dilution microtiter. The format is cell-based. From the text: (§1) The MIC's in Table X were obtained using conventional broth-dilution microtiter tests.
For experiment [3], the system named is Staphylococcus aureus V41. Put plainly: MIC, standard agar-dilution assay, Staphylococcus aureus V41. The format is cell-based. Particulars: Staphylococcus aureus V41; penicillin-resistant strain; agar dilution. On the technique in general: Agar dilution tests growth on a series of plates holding different concentrations.
In experiment [4] the test system is Mycoplasma hyopneumoniae. Put plainly: MIC, broth-dilution microtiter test, Mycoplasma hyopneumoniae. The class given is cell-based. Particulars: Mycoplasma hyopneumoniae; broth-dilution microtiter.
From the text: as §1

The test system of experiment [5] is Haemophilus influenzae R252. Put plainly: MIC, standard agar-dilution assay, Haemophilus influenzae R252. Particulars: Haemophilus influenzae R252; ampicillin-resistant strain; agar dilution. The class given is cell-based.
For experiment [6], the system named is Staphylococcus aureus X400. Put plainly: MIC, standard agar-dilution assay, Staphylococcus aureus X400. The class given is cell-based. Particulars: Staphylococcus aureus X400; methicillin-resistant strain; agar dilution.
Experiment [7] deals with Streptococcus Group D X66. Put plainly: MIC, standard agar-dilution assay, Streptococcus Group D X66. Particulars: Streptococcus Group D X66; agar dilution. The class given is cell-based.
The test system of experiment [8] is Staphylococcus aureus X1.1. Put plainly: MIC, standard agar-dilution assay, Staphylococcus aureus X1.1. The format is cell-based. The following applies: Staphylococcus aureus X1.1; agar dilution.
Experiment [9] concerns Streptococcus pyogenes C203. Put plainly: MIC, standard agar-dilution assay, Streptococcus pyogenes C203. The class given is cell-based. The following applies: Streptococcus pyogenes C203; agar dilution.
The subject of experiment [10] is Streptococcus pneumoniae Park I. Put plainly: microbe, parasite or virus in culture. The following applies: Streptococcus pneumoniae Park I; agar dilution. The format is cell-based.
Experiment [11] relates to Staphylococcus epidermidis EPI2. Put plainly: MIC, standard agar-dilution assay, Staphylococcus epidermidis EPI2. The following applies: Staphylococcus epidermidis EPI2; agar dilution. The class given is cell-based.
For experiment [12], the system named is Staphylococcus epidermidis EPI1. Put plainly: MIC, standard agar-dilution assay, Staphylococcus epidermidis EPI1. The following applies: Staphylococcus epidermidis EPI1; agar dilution. The format is cell-based.
Experiment [13] relates to Pasteurella multocida 17E. Put plainly: MIC, broth-dilution microtiter test, Pasteurella multocida 17E. The class given is cell-based. The following applies: Pasteurella multocida 17E; bovine isolate; broth-dilution microtiter.
From the text: as §1

Experiment [14] relates to Pasteurella hemolytica 22C. Put plainly: MIC, broth-dilution microtiter test, Pasteurella hemolytica 22C. The class given is cell-based. The following applies: Pasteurella hemolytica 22C; broth-dilution microtiter.
From the text: as §1

For experiment [15], the system named is Haemophilus influenzae Holt. Put plainly: MIC, standard agar-dilution assay, Haemophilus influenzae Holt. The format is cell-based. Particulars: Haemophilus influenzae Holt; ampicillin-sensitive strain; agar dilution.
Experiment [16] deals with Staphylococcus aureus S13E. Put plainly: MIC, standard agar-dilution assay, Staphylococcus aureus S13E. The format is cell-based. The following applies: Staphylococcus aureus S13E; agar dilution.
For experiment [17], the system named is Mycoplasma hyorhinis. Put plainly: MIC, broth-dilution microtiter test, Mycoplasma hyorhinis. The class given is cell-based. Particulars: Mycoplasma hyorhinis; broth-dilution microtiter.
From the text: as §1

Experiment [18] concerns Staphylococcus aureus. Put plainly: MIC, broth-dilution microtiter test, Staphylococcus aureus. Particulars: broth-dilution microtiter. The format is cell-based.
From the text: as §1

Experiment [19] concerns Streptococcus bovis 80. Put plainly: MIC, broth-dilution microtiter test, Streptococcus bovis 80. The format is cell-based. Particulars: Streptococcus bovis 80; broth-dilution microtiter.
From the text: as §1

Experiment [20] concerns Mycoplasma gallisepticum. Put plainly: MIC, broth-dilution microtiter test, Mycoplasma gallisepticum. The format is cell-based. Particulars: Mycoplasma gallisepticum; broth-dilution microtiter.
From the text: as §1

Experiment [21] concerns Streptococcus Group 9960. Put plainly: MIC, standard agar-dilution assay, Streptococcus Group 9960. The format is cell-based. Particulars: Streptococcus Group 9960; agar dilution.
Experiment [22] relates to Mycoplasma synoviae. Put plainly: MIC, broth-dilution microtiter test, Mycoplasma synoviae. The class given is cell-based. The following applies: Mycoplasma synoviae; broth-dilution microtiter.
From the text: as §1

Consider `CCC(=O)OC1C(C)OC(OC2C(CCN3C(=O)c4ccccc4C3=O)CC(C)C(=O)C=CC(C)=CC(COC3OC(C)C(O)C(OC)C3OC)C(CC)OC(=O)CC(O)C2C)C(OC(=O)CC)C1N(C)C` (stereo not drawn) [Compound 66, 20-DH-DO-20-N-Phthalimido-2',4'-di-O-propionyldesmycosin], for which the “ED50, Oral” value in [1] is listed as 31 mg/kg × 2. Besides, the “ED50, Subcutaneous” value in experiment [1] is above 6.3 mg/kg × 2. The MIC is 25 µg/mL (≈ 24.6 µM) in experiment [2]; 0.5 µg/mL (≈ 0.493 µM) in experiment [3]; 25 µg/mL (≈ 24.6 µM) in [4]; 64 µg/mL (≈ 63 µM) in [5]; 1 µg/mL (≈ 0.985 µM) in [6]; 8 µg/mL (≈ 7.88 µM) in experiment [7]. For the same molecule, the MIC in experiment [8] worked out at 0.5 µg/mL (≈ 0.493 µM); in [9] it was 2 µg/mL (≈ 1.97 µM); in experiment [10], 0.5 µg/mL (≈ 0.493 µM); in experiment [11] it was 0.25 µg/mL (≈ 0.246 µM); in experiment [12], 0.5 µg/mL (≈ 0.493 µM); in experiment [13] it was 25 µg/mL (≈ 24.6 µM). The MIC amounted to 25 µg/mL (≈ 24.6 µM) in [14]; 64 µg/mL (≈ 63 µM) in experiment [15]; 0.5 µg/mL (≈ 0.493 µM) in [16]; 50 µg/mL (≈ 49.3 µM) in experiment [17]; 0.78 µg/mL (≈ 0.768 µM) in experiment [18]; 6.25 µg/mL (≈ 6.16 µM) in [19]. The MIC in [20] worked out at 0.09 µg/mL (≈ 0.0887 µM); in experiment [21], 8 µg/mL (≈ 7.88 µM).
As for `CCC(=O)OC1C(OC2C(CCCl)CC(C)C(=O)C=CC(C)=CC(COC3OC(C)C(O)C(OC)C3OC)C(CC)OC(=O)CC(O)C2C)OC(C)C(O)C1N(C)C` (stereo not drawn) [Compound 69, 20-DH-DO-20-Chloro-2'-O-propionyldesmycosin], in [1], the “ED50, Oral” value is reported as 27 mg/kg × 2. Also, in experiment [1], the “ED50, Subcutaneous” value is given as 3.3 mg/kg × 2. Moreover, the MIC was 2.5 µg/mL (≈ 2.95 µM) in [2]; 0.25 µg/mL (≈ 0.295 µM) in experiment [3]; 12.5 µg/mL (≈ 14.7 µM) in [4]; 16 µg/mL (≈ 18.9 µM) in experiment [5]; 0.5 µg/mL (≈ 0.589 µM) in experiment [6]; 8 µg/mL (≈ 9.43 µM) in experiment [7]. The MIC was 0.25 µg/mL (≈ 0.295 µM) in experiment [8]; 2 µg/mL (≈ 2.36 µM) in [9]; 0.25 µg/mL (≈ 0.295 µM) in experiment [10]; 0.12 µg/mL (≈ 0.141 µM) in experiment [11]; 0.25 µg/mL (≈ 0.295 µM) in experiment [12]; 25 µg/mL (≈ 29.5 µM) in [13]. The MIC worked out at 25 µg/mL (≈ 29.5 µM) in experiment [14]; 16 µg/mL (≈ 18.9 µM) in experiment [15]; 0.25 µg/mL (≈ 0.295 µM) in [16]; 50 µg/mL (≈ 58.9 µM) in experiment [17]; 0.78 µg/mL (≈ 0.919 µM) in [18]; 6.25 µg/mL (≈ 7.37 µM) in experiment [19]. Moreover, the MIC in experiment [20] was 0.39 µg/mL (≈ 0.46 µM); in [21], 8 µg/mL (≈ 9.43 µM).
With `CCC1OC(=O)CC(O)C(C)C(OC2OC(C)CC(N(C)C)C2O)C(CCOc2ccccc2)CC(C)C(=O)C=CC(C)=CC1COC1OC(C)C(O)C(OC)C1OC` (stereo not drawn) [Compound 70, 20-DH-20-O-Phenyl-4'-deoxydesmycosin], the “ED50, Oral” value in experiment [1] amounted to 7 mg/kg × 2. Besides, the “ED50, Subcutaneous” value in [1] is on record as 3.1 mg/kg × 2. The MIC in experiment [2] came to 12.5 µg/mL (≈ 15 µM); in [3], 0.25 µg/mL (≈ 0.3 µM); in [5] it was 4 µg/mL (≈ 4.8 µM); in [6], 0.25 µg/mL (≈ 0.3 µM); in [7], 2 µg/mL (≈ 2.4 µM); in [8], 0.25 µg/mL (≈ 0.3 µM). Also, the MIC in experiment [22] was 0.78 µg/mL (≈ 0.935 µM); in experiment [9] it was 0.5 µg/mL (≈ 0.599 µM); in experiment [10], 0.5 µg/mL (≈ 0.599 µM); in experiment [11] it was 0.12 µg/mL (≈ 0.144 µM); in experiment [12], 0.25 µg/mL (≈ 0.3 µM); in experiment [13] it was 12.5 µg/mL (≈ 15 µM). In addition, the MIC in experiment [14] came out at 50 µg/mL (≈ 59.9 µM); in [15], 4 µg/mL (≈ 4.8 µM); in experiment [16], 0.25 µg/mL (≈ 0.3 µM); in experiment [17] it was 12.5 µg/mL (≈ 15 µM); in experiment [18], 0.78 µg/mL (≈ 0.935 µM); in experiment [19], 6.25 µg/mL (≈ 7.49 µM). For the same molecule, the MIC stood at 0.39 µg/mL (≈ 0.468 µM) in experiment [20] and 4 µg/mL (≈ 4.8 µM) in experiment [21].
